Data as given in ChEMBL document CHEMBL1126509, “Trisnorsqualene methyl hydroxylamine: a potent dual inhibitor of mammalian squalene epoxidase and oxidosqualene cyclase” (Bioorg Med Chem Lett, 1993).
pIC50: −log10 of the molar value.

Experiments:
[1] = Inhibitory concentration at which 50% decrease in the activity of Squalene epoxidase and Oxidosqualene cyclase in pig liver microsomes; set-up: species or system Sus scrofa, Microsome
[2] = Inhibitory concentration at which 50% decrease in the activity of Squalene epoxidase and Oxidosqualene cyclase in pig liver microsomes; NI means no inhibition; set-up: species or system Sus scrofa, Microsome
[3] = Inhibitory concentration at which 50% decrease in the activity of Squalene epoxidase in pig liver microsomes; NI means no inhibition

pIC50 [1]	IC50 [2]	IC50 [3]	SMILES
< 3.40			CC(C)=CCC/C(C)=C/CC/C(C)=C/CC/C=C(\C)CC/C=C(\C)CC/C=C/[N+](=O)[O-]
	Not Active	Not Active	CC(C)=CCC/C(C)=C/CC/C(C)=C/CC/C=C(\C)CC/C=C(\C)CC/C=N/O
3.70			CC(C)=CCC/C(C)=C/CC/C(C)=C/CC/C=C(\C)CC/C=C(\C)CCC(O)C[N+](=O)[O-] (stereo not given)
5.30			CC(C)=CCC/C(C)=C/CC/C(C)=C/CC/C=C(\C)CC/C=C(\C)CCCN(C)O
